Measurements as given in ChEMBL document CHEMBL1201862, “PubChem BioAssay data set” (2004).
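Briefly, cells in 96-well plates were exposed to five compound concentrations for 48 h, and endpoints were estimated by linear interpolation. GI50 is the concentration that inhibits growth by half.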 Calls of active or inactive are those of the source. Rule as the data show it: active = GI50 up to about 1.1 µM and inactive = higher. Peptide text beside a SMILES is read from it. * marks the point of attachment. Cbz = O=C(OCc1ccccc1)*; OBn = c1ccc(CO*)cc1

Legend:
Experiment in all cases: NCI tumour cell line growth inhibition, 48 h
CAKI-1 = system: CAKI-1
SF-295 = system: SF-295
HOP-92 = system: HOP-92
SK-OV-3 = system: SK-OV-3
Malme-3M = system: Malme-3M
SK-MEL-2 = system: SK-MEL-2
MDA-MB-231 = system: MDA-MB-231
SN12C = system: SN12C
EKVX = system: EKVX
UACC-62 = system: UACC-62
NCI-H460 = system: NCI-H460
A498 = system: A498
SF-539 = system: SF-539
HL-60 = system: HL-60
LOX IMVI = system: LOX IMVI
MOLT-4 = system: MOLT-4
IGROV-1 = system: IGROV-1
HT-29 = system: HT-29
SR = system: SR

Measured: GI50

N#CCC(=O)c1cc(OCc2cc(OCc3ccc(Br)cc3)cc(OCc3ccc(Br)cc3)c2)cc(OCc2cc(OCc3ccc(Br)cc3)cc(OCc3ccc(Br)cc3)c2)c1
inactive: CAKI-1 > 100 µM | SF-295 > 100 µM | HOP-92 > 100 µM | SK-OV-3 > 100 µM | Malme-3M > 100 µM | SK-MEL-2 > 100 µM | MDA-MB-231 > 100 µM | SN12C > 100 µM | EKVX > 100 µM | UACC-62 > 100 µM | NCI-H460 > 100 µM | A498 > 100 µM

CCOC(=O)c1nc2ccc(C(F)(F)F)cc2nc1Oc1cc(OC)cc(OC)c1
inactive: SF-539 57.1 µM | SF-295 78.3 µM | HL-60 > 100 µM | HOP-92 40.1 µM | LOX IMVI > 100 µM | SK-OV-3 > 100 µM | Malme-3M 35.8 µM | MOLT-4 > 100 µM | SK-MEL-2 > 100 µM | MDA-MB-231 > 100 µM | IGROV-1 41.7 µM | SN12C > 100 µM | HT-29 > 100 µM | EKVX > 100 µM | UACC-62 > 100 µM | NCI-H460 60.5 µM | A498 > 100 µM

O=C1N=C2SC=C(NC(=S)Nc3ccccc3)N2NC12c1ccccc1-c1ccccc12
inactive: CAKI-1 > 10 µM | SF-539 > 10 µM | SF-295 > 10 µM | HL-60 > 10 µM | HOP-92 > 10 µM | LOX IMVI > 10 µM | SK-OV-3 > 10 µM | SR > 10 µM | Malme-3M > 10 µM | MOLT-4 > 10 µM | MDA-MB-231 > 10 µM | IGROV-1 > 10 µM | SN12C > 10 µM | HT-29 > 10 µM | EKVX 9.25 µM | UACC-62 > 10 µM | NCI-H460 > 10 µM

COc1ccc(OC)c2cc(Cc3ccc(N(C)C)cc3)c(=O)c(Cc3ccc(N(C)C)cc3)cc12
inactive: CAKI-1 61 µM | SF-539 86.1 µM | SF-295 > 100 µM | HOP-92 > 100 µM | SK-OV-3 > 100 µM | Malme-3M > 100 µM | MOLT-4 > 100 µM | MDA-MB-231 74.5 µM | IGROV-1 45.7 µM | SN12C > 100 µM | HT-29 > 100 µM | EKVX > 100 µM | UACC-62 59.4 µM | NCI-H460 55.6 µM | A498 26.4 µM

CC(C(N)C(=O)NC(C(=O)O)C1OC(n2ccc(=O)[nH]c2=O)C(O)C1O)C(O)c1ccc(O)cn1 (stereo unspecified)
inactive: CAKI-1 > 100 µM | SF-539 > 100 µM | SF-295 > 100 µM | HL-60 > 100 µM | HOP-92 > 100 µM | LOX IMVI > 100 µM | SR > 100 µM | MOLT-4 > 100 µM | SK-MEL-2 > 100 µM | MDA-MB-231 > 100 µM | IGROV-1 > 100 µM | SN12C > 100 µM | HT-29 > 100 µM | EKVX > 100 µM | UACC-62 > 100 µM | NCI-H460 > 100 µM

CC1=C([S+]([O-])c2ccc(C)cc2)CCC2(CCCCO2)O1 (stereo unspecified)
inactive: CAKI-1 > 100 µM | SF-295 > 100 µM | HL-60 23.3 µM | LOX IMVI > 100 µM | Malme-3M > 100 µM | MOLT-4 > 100 µM | SK-MEL-2 64.3 µM | MDA-MB-231 > 100 µM | IGROV-1 > 100 µM | SN12C > 100 µM | HT-29 > 100 µM | EKVX > 100 µM | UACC-62 > 100 µM | NCI-H460 > 100 µM | A498 > 100 µM

N#CC(/N=N/c1ccccc1C(=O)O)C(N)=O (stereo unspecified)
inactive: CAKI-1 > 100 µM | SF-295 > 100 µM | HL-60 > 100 µM | SR > 100 µM | Malme-3M 91.2 µM | MOLT-4 > 100 µM | SK-MEL-2 > 100 µM | MDA-MB-231 > 100 µM | SN12C > 100 µM | HT-29 > 100 µM | EKVX > 100 µM | UACC-62 > 100 µM | NCI-H460 > 100 µM

Cc1cc2c(cc1Cl)SC(NN(C)C)=NS2(=O)=O
inactive: CAKI-1 > 10 µM | SF-539 > 10 µM | SF-295 > 10 µM | HL-60 > 10 µM | LOX IMVI > 10 µM | SK-OV-3 > 10 µM | Malme-3M > 10 µM | MOLT-4 > 10 µM | SK-MEL-2 > 10 µM | MDA-MB-231 > 10 µM | IGROV-1 > 10 µM | SN12C > 10 µM | HT-29 > 10 µM | EKVX > 10 µM | UACC-62 > 10 µM | NCI-H460 > 10 µM | A498 > 10 µM

N#Cc1nc(Cc2ccccc2)oc1N
inactive: CAKI-1 > 100 µM | SF-539 > 100 µM | SF-295 > 100 µM | LOX IMVI > 100 µM | SK-OV-3 > 100 µM | SR > 100 µM | Malme-3M > 100 µM | MOLT-4 > 100 µM | SK-MEL-2 > 100 µM | MDA-MB-231 > 100 µM | IGROV-1 > 100 µM | SN12C > 100 µM | HT-29 > 100 µM | EKVX > 100 µM | NCI-H460 > 100 µM

COc1cc(/C=C2\N=C(c3ccccc3)N(c3nc4cc(C)c(C)cc4s3)C2=O)cc(OC)c1OC
inactive: CAKI-1 35.1 µM | SF-539 21.7 µM | SF-295 27.9 µM | HL-60 17.8 µM | HOP-92 13 µM | LOX IMVI 22.4 µM | SK-OV-3 27.7 µM | SR 18.4 µM | MOLT-4 3.31 µM | SK-MEL-2 32 µM | MDA-MB-231 43.6 µM | IGROV-1 15.9 µM | SN12C 34.8 µM | HT-29 19 µM | EKVX 17.5 µM | UACC-62 33.3 µM | NCI-H460 29.2 µM

C[N+](C)(C)/C=N\c1cccc2nsnc12
inactive: CAKI-1 > 100 µM | SF-539 > 100 µM | SF-295 > 100 µM | HL-60 > 100 µM | HOP-92 > 100 µM | LOX IMVI > 100 µM | SK-OV-3 > 100 µM | Malme-3M > 100 µM | MOLT-4 > 100 µM | SK-MEL-2 > 100 µM | MDA-MB-231 > 100 µM | IGROV-1 > 100 µM | SN12C > 100 µM | HT-29 > 100 µM | EKVX > 100 µM | UACC-62 > 100 µM | A498 > 100 µM

COC(=O)CNC(=O)C(C)NC(=O)C(CC(=O)OCc1ccccc1)NC(=O)OCc1ccccc1 (stereo not drawn) (Cbz-Asp(OBn)-Ala-Gly-OMe; configuration not given here)
inactive: CAKI-1 79.8 µM | SF-539 70.8 µM | SF-295 33.3 µM | HOP-92 66.5 µM | SK-OV-3 > 100 µM | SR 35.5 µM | Malme-3M 45.2 µM | MOLT-4 13.7 µM | SK-MEL-2 65.5 µM | MDA-MB-231 6.64 µM | IGROV-1 > 100 µM | SN12C 91.6 µM | HT-29 65.5 µM | UACC-62 58.3 µM | NCI-H460 50.7 µM
